Values belong to the molecule of their own block, whether it stands above or below them.
Key:
Type in all cases: cell-based
[1] = test system: tamoxifen resistant T47D (Tam5R); experiment: crystal violet assay, tamoxifen resistant cells; conditions: Homo sapiens, T47D Tam5R grown in the presence of 5 μM tamoxifen
Method: (§1) Compound 1 and a comparative compound deferasirox (DFX) were tested in their efficacy to kill/suppress proliferation of malignant breast cancer MCF7 cells representing estrogen-dependent type of breast cancer. Briefly, 10.000 cells per well were seeded in a 96-well plate on one day and the next day the tested compounds were added and incubated with the cells for 48 hrs. The cells were then fixed with 4% paraformaldehyde, stained with 0.05% crystal violet, washed with PBS, and solubilized in 1% SDS. The absorbance of the plate at 595 nm was then measured, quantifying the number of viable cells.
(§2) To test whether compound 1 is active against resistant cancer cells, we used tamoxifen-resistant MCF7, T47D. The IC50 values were again measured with the crystal violet assay performed as in example 12. We have documented that there is a significant difference in the ability of compound 1 to induce cytostatic and cytotoxic effects between the parental cells sensitive to tamoxifen and the resistant ones that grow even in the presence of tamoxifen (Table 11), yet the IC50 values are still in the nM range, making this compound very efficient.

[2] = test system: tamoxifen resistant MCF7 (Tam5R); experiment: crystal violet assay, tamoxifen resistant cells; conditions: MCF7 Tam5R grown in the presence of 5 μM tamoxifen
Method: as §1, §2

MCF7 cells [3] = experiment: real time monitoring of cell confluence via Juli FL; conditions: 30 nM
Method: We also tested the ability of compound 1 to suppress proliferation of cancer cells by an alternative approach via the real time monitoring with a cellular analyser Juli F L. In brief, MCF7 cells were seeded in a 6-well plate the day before to reach approximately 5% confluence on the following day. Next day, the camera of the instrument was focused on a particular field with approximately 5% confluence and cells were continuously monitored, recording the confluence and visual appearance every 30 minutes for 48 hrs. Values were then expressed either as simple confluence at the end of the experiment or as slope of the line representing the confluence during a given period of time (Table 5).

MCF7 cells [4] = experiment: oxygen consumption rate (OCR), Seahorse XFe96; conditions: for Oxygen consumption rate, Basal / Oxygen consumption rate, Maximal / Oxygen consumption rate, Proton-leak: MCF7
Method: For Seahorse analysis, 20.000 cells were seeded in 96 well plates and added immediately before measurement (addition, Table 6) or incubated with compound 1 for 1 hour (preincubation, Table 7). Afterwards, oxygen consumption rate (OCR) was measured in three cycles of 3 minutes preceded by 3 minutes of mixing, using a Seahorse XFe96 analyzer (Agilent). Results express the mean values of the three cycles.

MCF7 [5] = experiment: annexin V/PI staining, cell death induction, 48 hrs
Method: (§3) This effect seems to be based mainly on the cytostatic effect of compound 1. To define the ability to kill cells, cell death-inducing potency (cytotoxic efficacy) of DFX and compound 1 have been tested via annexin V/PI staining commonly used as a measure of apoptotic/necrotic cell death. Briefly, cells were seeded in 12-well plate at 100,000 per well, incubated with the selected compounds for 48 hours, then floating cells were spun, adherent cells trypsinized and spun as well followed by the staining with AnnexinV-FITC and PI probes. Cells were then washed with PBS and measured via Fluorescence Activated Sorter.
(§4) Since compound 1 is an iron chelator, we have evaluated the effect of pre-loading compound 1 with iron at a 2:1 ratio and then applying it to the cells, followed by measurement of cell death using the Annexin V/PI staining as in example 4.

MDA-MB-231 [6] = experiment: as above
Method: as §3, §4

MCF7 [7] = experiment: mitochondrial ROS, mitoSOX probe, flow cytometry
Method: (§5) The effect of compound 1 on generation of mitochondrial reactive oxygen species (ROS) was evaluated in MCF7 and MDA-MB-231 cells using a specific mitochondrially targeted probe mitoSOX (ThermoFisher Scientific) that measures mostly mitochondrial superoxide and upon binding becomes fluorescent. Cells treated with compound 1 for the described time interval were stained with the probe and then analyzed via Flow cytometry.

MDA-MB-231 [8] = experiment: mitochondrial ROS, mitoSOX probe, flow cytometry
Method: as §5

[9] = test system: MCF7 cells stably transfected with KEIMA; experiment: mitophagy induction, KEIMA reporter; conditions: 24 hours
Method: (§6) The effect of compounds 1 and 2 on mitophagy induction was assessed in MCF7 and MDA-MB-231 cells using the reporter protein KEIMA. The excitation spectra of KEIMA changes according to the mitochondrial pH, having an excitation peak at 440 nm atr pH>6 and at 586 at pH<5, with a second excitation peak remaining constant at 620 nm. Therefore, a decrease in the 440 nm/586 nm fluorescence ratio indicates mitochondrial acidification. MCF7 and MDA-MB-231 cells stably transfected with KEIMA were incubated with compound 1 for 24 hours and their fluorescence at both excitation wavelengths was measured by flow cytometry.

[10] = test system: MDA-MB-231 cells stably transfected with KEIMA; experiment: mitophagy induction, KEIMA reporter; conditions: 24 hours
Method: as §6

[11] = 5 μM, +Fe^+3 (pre-loaded with iron at a 2:1 ratio)
[12] = 10 μM, +Fe^+3 (pre-loaded with iron at a 2:1 ratio)

SMILES: O=C(NCCCCCCCCCC[P+](c1ccccc1)(c1ccccc1)c1ccccc1)c1ccc(-n2nc(-c3ccccc3O)nc2-c2ccccc2O)cc1 [Compound 1, (10-(4-(3,5-bis(2-hydroxyphenyl)-1H-1,2,4-triazol-1-yl)benzamido)decyl) triphenylphosphonium Chloride]
IC50 [1]: 0.112 µM
IC50 [2]: 0.038 µM
effect on cellular proliferation (MCF7 cells [3]; MCF7): significant inhibition of cellular proliferation
Final % confluence (MCF7 cells [3]; MCF7, 48 hrs): 15.01 (3.4) %
Slope 0-22 h (confluence versus time) (MCF7 cells [3]; MCF7, Juli FL): 0.258 (0.005)
Slope 22-48 h (confluence versus time) (MCF7 cells [3]; MCF7, Juli FL): 0.404 (0.005)
Oxygen consumption rate, Basal (MCF7 cells [4]; 5 μM, 1 h preincubation): 39.9 (5.8) pmol*min^−1 10.000 cells^−1
Oxygen consumption rate, Maximal (MCF7 cells [4]; 5 μM, 1 h preincubation): 20.7 (4.5) pmol*min^−1 10.000 cells^−1
Oxygen consumption rate, Proton-leak (MCF7 cells [4]; 5 μM, 1 h preincubation): 33.1 (4.7) pmol*min^−1 10.000 cells^−1
Oxygen consumption rate, Basal (MCF7 cells [4]; 5 μM, immediate addition): 52.4 (9.2) pmol*min^−1 10.000 cells^−1
Oxygen consumption rate, Maximal (MCF7 cells [4]; 5 μM, immediate addition): 29.7 (5.8) pmol*min^−1 10.000 cells^−1
Oxygen consumption rate, Proton-leak (MCF7 cells [4]; 5 μM, immediate addition): 43.5 (7.6) pmol*min^−1 10.000 cells^−1
Oxygen consumption rate, Basal (MCF7 cells [4]; 10 μM, 1 h preincubation): 30.9 (3.1) pmol*min^−1 10.000 cells^−1
Oxygen consumption rate, Maximal (MCF7 cells [4]; 10 μM, 1 h preincubation): 17.4 (3.8) pmol*min^−1 10.000 cells^−1
Oxygen consumption rate, Proton-leak (MCF7 cells [4]; 10 μM, 1 h preincubation): 25.9 (3.1) pmol*min^−1 10.000 cells^−1
Oxygen consumption rate, Basal (MCF7 cells [4]; 10 μM, immediate addition): 49.6 (9.6) pmol*min^−1 10.000 cells^−1
Oxygen consumption rate, Maximal (MCF7 cells [4]; 10 μM, immediate addition): 26.3 (5.4) pmol*min^−1 10.000 cells^−1
Oxygen consumption rate, Proton-leak (MCF7 cells [4]; 10 μM, immediate addition): 37.3 (6.1) pmol*min^−1 10.000 cells^−1
effect on cellular respiration (MCF7 cells [4]; OCR, Seahorse): marked inhibition of cellular respiration
dead cells (AnnexinV/PI) (MCF7 [5]; [11]): 24.3 (1.1) %
dead cells (AnnexinV/PI) (MCF7 [5]; 5 μM, alone): 38.5 (8.8) %
dead cells (AnnexinV/PI) (MCF7 [5]; [12]): 25.7 (2.5) %
dead cells (AnnexinV/PI) (MCF7 [5]; 10 μM, alone): 46.6 (7.8) %
dead cells (AnnexinV/PI) (MDA-MB-231 [6]; 5 μM): 53.5 (23.1) %
dead cells (AnnexinV/PI) (MDA-MB-231 [6]; [11]): 15.9 (2.7) %
dead cells (AnnexinV/PI) (MDA-MB-231 [6]; 5 μM, alone): 61.1 (18.8) %
dead cells (AnnexinV/PI) (MDA-MB-231 [6]; [12]): 22.4 (6.1) %
dead cells (AnnexinV/PI) (MDA-MB-231 [6]; 10 μM, alone): 88.2 (5.8) %
MitoSOX mean fluorescence (MCF7 [7]; 5 min, MCF7 (0 min = 100)): 176.5 (15.0)
MitoSOX mean fluorescence (MCF7 [7]; 10 min, MCF7): 177.6 (26.1)
MitoSOX mean fluorescence (MCF7 [7]; 15 min, MCF7): 191.6 (47.0)
MitoSOX mean fluorescence (MCF7 [7]; 30 min, MCF7): 230.8 (85.2)
MitoSOX mean fluorescence (MCF7 [7]; 60 min, MCF7): 235.9 (99.3)
MitoSOX mean fluorescence (MCF7 [7]; 120 min, MCF7): 171.1 (17.6)
MitoSOX mean fluorescence (MCF7 [7]; 180 min, MCF7): 165.4 (8.9)
MitoSOX mean fluorescence (MCF7 [7]; 240 min, MCF7): 207.7 (18.5)
MitoSOX mean fluorescence (MDA-MB-231 [8]; 5 min, MDA-MB-231 (0 min = 100)): 134.7 (36.9)
MitoSOX mean fluorescence (MDA-MB-231 [8]; 10 min, MDA-MB-231): 196.7 (41.5)
MitoSOX mean fluorescence (MDA-MB-231 [8]; 15 min, MDA-MB-231): 284.7 (103.2)
MitoSOX mean fluorescence (MDA-MB-231 [8]; 30 min, MDA-MB-231): 379.1 (76.9)
MitoSOX mean fluorescence (MDA-MB-231 [8]; 60 min, MDA-MB-231): 439.1 (83.0)
MitoSOX mean fluorescence (MDA-MB-231 [8]; 120 min, MDA-MB-231): 588.2 (14.11)
MitoSOX mean fluorescence (MDA-MB-231 [8]; 180 min, MDA-MB-231): 560.8 (27.5)
MitoSOX mean fluorescence (MDA-MB-231 [8]; 240 min, MDA-MB-231): 612.5 (37.5)
KEIMA 440 nm/586 nm fluorescence ratio ([9]; 1.5 μM): 1.01 (0.14)
KEIMA 440 nm/586 nm fluorescence ratio ([9]; 2.5 μM): 0.99 (0.13)
KEIMA 440 nm/586 nm fluorescence ratio ([9]; 5 μM): 0.86 (0.15)
KEIMA 440 nm/586 nm fluorescence ratio ([9]; 10 μM): 0.71 (0.25)
KEIMA 440 nm/586 nm fluorescence ratio ([10]; 1.5 μM): 0.81 (0.02)
KEIMA 440 nm/586 nm fluorescence ratio ([10]; 2.5 μM): 0.81 (0.03)
KEIMA 440 nm/586 nm fluorescence ratio ([10]; 5 μM): 0.76 (0.10)
KEIMA 440 nm/586 nm fluorescence ratio ([10]; 10 μM): 0.50 (0.04)

IC50 [1]: 82.6 µM
IC50 [2]: 15 µM
SMILES: O=C(O)c1ccc(-n2nc(-c3ccccc3O)nc2-c2ccccc2O)cc1 [DFX, deferasirox, reference compound]
dead cells (AnnexinV/PI) (MCF7 [5]; 500 μM): 85.2 (3.3) %

Reference: patent US20220251124A1, “3,5-BIS(PHENYL)-1H-HETEROARYL DERIVATIVES AS MEDICAMENTS” (INSTITUTE OF BIOTECHNOLOGY CAS, V.V.I., priority 2019, published 2022)
